Patent US9376418B2, “Substituted pyridine spleen tyrosine kinase (SYK) inhibitors” (Merck Sharp & Dohme Corp., priority 2012, dated 2016)

molecular target: T1, recombinant human GST-SYK (Homo sapiens, UniProt P43405); experiment: Homogeneous Time-Resolved Fluorescence (HTRF) assay for the recombinant human Syk enzyme; type: biochemical; conditions: HTRF assay, recombinant human GST-SYK; IC50 given as class symbols; read-out: rhSYK Activity
T1 construct: purchased Carna Biosciences 08-176
Summary of the method: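 Phosphorylation of a biotinylated Syk substrate peptide (250 nM) was run for 45 min at room temperature with 25 μM ATP and 5 mM Mg. It followed a 10-min preincubation of GST-hSYK ([…]) with compound in 15 mM Tris-HCl pH 7.5, 2 mM DTT. Product was detected by time-resolved fluorescence using a europium anti-phosphotyrosine antibody plus SA-APC in EDTA-containing quench buffer.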

Structure (SMILES) | IC50
COc1nc(Nc2cc(C)cc(-c3ccc(N[C@H]4CC[C@H](C(=O)O)CC4)nc3)c2)ncc1F [Example 2.121, trans-4-[(5-{3-[(5-fluoro-4-methoxypyrimidin-2-yl)amino]-5-methylphenyl}pyridin-2-yl)amino]cyclohexanecarboxylic acid] | < 0.1 µM
COc1cc(-c2cccc(Nc3nccc(C(F)(F)F)n3)c2)ccn1 [Example 2.122, N-[3-(2-methoxypyridin-4-yl)phenyl]-4-(trifluoromethyl)pyrimidin-2-amine] | 0.1 to 1 µM
Cc1cc(Nc2nccc(C(F)(F)F)n2)cc(-c2ccnc(C(F)(F)F)c2)c1 [Example 2.123, N-{3-methyl-5-[2-(trifluoromethyl)pyridin-4-yl]phenyl}-4-(trifluoromethyl)pyrimidin-2-amine] | 0.1 to 1 µM
Cc1cc(Nc2nccc(C(F)(F)F)n2)cc(-c2ccncc2)c1 [Example 2.124, N-(3-methyl-5-pyridin-4-ylphenyl)-4-(trifluoromethyl)pyrimidin-2-amine] | < 0.1 µM
Cc1cc(Nc2nccc(C(F)(F)F)n2)cc(-c2ccnc(O)c2)c1 [Example 2.125, 4-(3-methyl-5-{[4-(trifluoromethyl)pyrimidin-2-yl]amino}phenyl)pyridin-2-ol] | < 0.1 µM
Cc1cc(Nc2nccc(C(F)(F)F)n2)cc(-c2ccnc(N3CCNCC3)c2)c1 [Example 2.126, N-[3-methyl-5-(2-piperazin-1-ylpyridin-4-yl)phenyl]-4-(trifluoromethyl)pyrimidin-2-amine] | < 0.1 µM
Cc1cc(Nc2nccc(C(F)(F)F)n2)cc(-c2ccnc(Br)c2)c1 [Example 2.127, N-[3-(2-bromopyridin-4-yl)-5-methylphenyl]-4-(trifluoromethyl)pyrimidin-2-amine] | 0.1 to 1 µM
O=C(O)CCc1cc(-c2cccc(Nc3nccc(C(F)(F)F)n3)c2)ccn1 [Example 2.129, 3-[4-(3-{[4-(trifluoromethyl)pyrimidin-2-yl]amino}phenyl)pyridin-2-yl]propanoic acid] | < 0.1 µM
COc1ccnc(Nc2cc(C)cc(-c3ccnc(CCC(=O)O)c3)c2)n1 [Example 2.131, 3-(4-{3-[(4-methoxypyrimidin-2-yl)amino]-5-methylphenyl}pyridin-2-yl)propanoic acid] | < 0.1 µM
Cc1cc(Nc2nccc(C(F)(F)F)n2)cc(-c2ccnc(CCC(=O)O)c2)c1 [Example 2.133, 3-[4-(3-methyl-5-{[4-(trifluoromethyl)pyrimidin-2-yl]amino}phenyl)pyridin-2-yl]propanoic acid] | < 0.1 µM
CCOC(=O)CCc1cc(-c2cc(C)cc(Nc3nccc(C)n3)c2)ccn1 [Example 2.134, ethyl 3-(4-{3-methyl-5-[(4-methylpyrimidin-2-yl)amino]phenyl}pyridin-2-yl)propanoate] | 0.1 to 1 µM
Cc1cc(Nc2nccc(C)n2)cc(-c2ccnc(CCC(=O)O)c2)c1 [Example 2.135, 3-(4-{3-methyl-5-[(4-methylpyrimidin-2-yl)amino]phenyl}pyridin-2-yl)propanoic acid] | < 0.1 µM
CCOC(=O)CCc1cc(-c2cc(C)cc(Nc3nccc(C4CC4)n3)c2)ccn1 [Example 2.136, ethyl 3-(4-{3-[(4-cyclopropylpyrimidin-2-yl)amino]-5-methylphenyl}pyridin-2-yl)propanoate] | 0.1 to 1 µM
Cc1cc(Nc2nccc(C3CC3)n2)cc(-c2ccnc(CCC(=O)O)c2)c1 [Example 2.137, 3-(4-{3-[(4-cyclopropylpyimidin-2-yl)amino]-5-methylphenyl}pyridin-2-yl)propanoic acid] | < 0.1 µM
Cc1cc(Nc2nccc(C(F)(F)F)n2)cc(-c2ccc(C(C)O)nc2)c1 (stereo not shown) [Example 2.138, 1-[5-(3-Methyl-5-{[4-(trifluoromethyl)pyrimidin-2-yl]amino}phenyl)pyridin-2-yl]ethanol] | < 0.1 µM

Next, values leading:

IC50 | Structure (SMILES)
< 0.1 µM | Cc1cc(Nc2nccc(C(F)(F)F)n2)cc(-c2ccc(CC(=O)O)nc2)c1 [Example 3.1, 2-(5-(3-methyl-5-((4-(trifluoromethyl)pyrimidin-2-yl)amino)phenyl)pyridin-2-yl)acetic acid]
< 0.1 µM | Cc1cc(Nc2nccc(C(F)(F)F)n2)cc(-c2ccc(CC(=O)N(C)C)nc2)c1 [Example 3.2, N,N-dimethyl-2-(5-(3-methyl-5-((4-(trifluoromethyl)pyrimidin-2-yl)amino)phenyl)pyridin-2-yl)acetamide]
< 0.1 µM | COc1ccnc(Nc2cc(C)cc(-c3ccnc(N)c3)c2)n1 [Example 4.1, N-[3-(2-aminopyridin-4-yl)-5-methylphenyl]-4-methoxypyrimidin-2-amine]
< 0.1 µM | Cc1cc(Nc2nccc(C(F)(F)F)n2)cc(-c2ccc(N)nc2)c1 [Example 4.2, N-[3-(6-aminopyridin-3-yl)-5-methylphenyl]-4-(trifluoromethyl)pyrimidin-2-amine]
< 0.1 µM | Cc1cc(Nc2nccc(C(F)(F)F)n2)cc(-c2cncc(F)c2)c1 [Example 4.3, N-[3-(5-fluoropyridin-3-yl)-5-methylphenyl]-4-(trifluoromethyl)pyrimidin-2-amine]
0.1 to 1 µM | Cc1cc(Nc2nccc(C(F)(F)F)n2)cc(-c2ccc(F)nc2)c1 [Example 4.4, N-[3-(6-fluoropyridin-3-yl)-5-methylphenyl]-4-(trifluoromethyl)pyrimidin-2-amine]
0.1 to 1 µM | COc1ccc(-c2cc(C)cc(Nc3nccc(C(F)(F)F)n3)c2)cn1 [Example 4.5, N-[3-(6-methoxypyridin-3-yl)-5-methylphenyl]-4-(trifluoromethyl)pyrimidin-2-amine]
0.1 to 1 µM | Cc1cc(Nc2nccc(C(F)(F)F)n2)cc(-c2ccc(C(F)(F)F)nc2)c1 [Example 4.6, N-{3-methyl-5-[6-(trifluoromethyl)pyridin-3-yl]phenyl}-4-(trifluoromethyl)pyrimidin-2-amine]
< 0.1 µM | Cc1cc(Nc2nccc(C(F)(F)F)n2)cc(-c2ccc(CO)nc2)c1 [Example 4.7, [5-(3-methyl-5-{[4-(trifluoromethyl)pyrimidin-2-yl]amino}phenyl)pyridin-2-yl]methanol]
0.1 to 1 µM | Cc1cc(Nc2nccc(C(F)(F)F)n2)cc(-c2ccc(O)nc2)c1 [Example 4.8, 5-(3-methyl-5-{[4-(trifluoromethyl)pyrimidin-2-yl]amino}phenyl)pyridin-2-ol]
0.1 to 1 µM | COc1cccc(-c2cc(C)cc(Nc3nccc(C(F)(F)F)n3)c2)n1 [Example 4.9]
0.1 to 1 µM | COc1cc(-c2cc(C)cc(Nc3nccc(C(F)(F)F)n3)c2)ccn1 [Example 4.10]
0.1 to 1 µM | Cn1cc(-c2cccc(Nc3nccc(C(F)(F)F)n3)c2)ccc1=O [Example 5.1, 1-Methyl-5-(3-{[4-(trifluoromethyl)pyrimidin-2-yl]amino}phenyl)pyridin-2(1H)-one]
0.1 to 1 µM | Cn1ccc(-c2cccc(Nc3nccc(C(F)(F)F)n3)c2)cc1=O [Example 5.2, 1-methyl-4-(3-{[4-(trifluoromethyl)pyrimidin-2-yl]amino}phenyl)pyridin-2(1H)-one]
0.1 to 1 µM | Cn1c(-c2cccc(Nc3nccc(C(F)(F)F)n3)c2)cccc1=O [Example 5.3, 1-methyl-6-(3-{[4-(trifluoromethyl)pyrimidin-2-yl]amino}phenyl)pyridin-2(1H)-one]
< 0.1 µM | CNC(=O)Nc1cc(Nc2nccc(C(F)(F)F)n2)cc(-c2cccnc2)c1 [Example 6.1, 1-Methyl-3-[3-(pyridin-3-yl)-5-{[4-(trifluoromethyl)pyrimidin-2-yl]amino}phenyl]urea]
< 0.1 µM | CCNC(=O)Nc1cc(Nc2nccc(C(F)(F)F)n2)cc(-c2cccnc2)c1 [Example 6.3, 1-ethyl-3-(3-pyridin-3-yl-5-{[4-(trifluoromethyl)pyrimidin-2-yl]amino}phenyl)urea]
< 0.1 µM | Nc1cc(Nc2nccc(C(F)(F)F)n2)cc(-c2ccncc2)c1 [Example 6.4, 5-pyridin-4-yl-N-[4-(trifluoromethyl)pyrimidin-2-yl]benzene-1,3-diamine]
< 0.1 µM | CC(=O)Nc1cc(Nc2nccc(C(F)(F)F)n2)cc(-c2ccncc2)c1 [Example 6.5, N-(3-pyridin-4-yl-5-{[4-(trifluoromethyl)pyrimidin-2-yl]amino}phenyl)acetamide]
< 0.1 µM | CCNC(=O)Nc1cc(Nc2nccc(C(F)(F)F)n2)cc(-c2ccc(C(=O)O)nc2)c1 [Example 6.6, 5-(3-[(ethylcarbamoyl)amino]-5-{[4-(trifluoromethyl)pyrimidin-2-yl]amino}phenyl)pyridine-2-carboxylic acid]
< 0.1 µM | CC(=O)Nc1cc(Nc2nccc(C(F)(F)F)n2)cc(-c2ccc(NC(C)(C)C(=O)O)nc2)c1 [Example 7.1, N-{5-[3-(acetylamino)-5-{[4-(trifluoromethyl)pyrimidin-2-yl]amino}phenyl]pyridin-2-yl}-2-methylalanine]
< 0.1 µM | CC(=O)Nc1cc(Nc2nccc(C(F)(F)F)n2)cc(-c2ccc(N3CC[C@H]3C(=O)O)nc2)c1 [Example 7.2, (2S)-1-{5-[3-(acetylamino)-5-{[4-(trifluoromethyl)pyrimidin-2-yl]amino}phenyl]pyridin-2-yl}azetidine-2-carboxylic acid]
< 0.1 µM | CC(=O)Nc1cc(Nc2nccc(C(F)(F)F)n2)cc(-c2ccc(NC3CCNC3=O)nc2)c1 (stereo not shown) [Example 7.3, N-(3-{6-[(2-oxopyrrolidin-3-yl)amino]pyridin-3-yl}-5-{[4-(trifluoromethyl)pyrimidin-2-yl]amino}phenyl)acetamide]
< 0.1 µM | CC(=O)Nc1cc(Nc2nccc(C(F)(F)F)n2)cc(-c2ccc(N3CCNC(=O)CC3)nc2)c1 [Example 7.4, N-(3-[6-(5-oxo-1,4-diazepan-1-yl)pyridin-3-yl]-5-{[4-(trifluoromethyl)pyrimidin-2-yl]amino}phenyl)acetamide]

same assay, conditions: recombinant GST-hSYK, 25 μM ATP, HTRF; read-out: IC50 (inhibition of human Syk activity)

IC50 | Structure (SMILES)
0.0039 µM | CC(=O)Nc1cc(Nc2nccc(C(F)(F)F)n2)cc(-c2ccc(NC(C)(C)C(=O)O)nc2)c1 [Example 7.1, N-{5-[3-(acetylamino)-5-{[4-(trifluoromethyl)pyrimidin-2-yl]amino}phenyl]pyridin-2-yl}-2-methylalanine]
